Results taken from ChEMBL document CHEMBL1201862, “PubChem BioAssay data set” (2004).
Activity calls are given as the source filed them.

Legend:
[1] = AlphaScreen signal interference compounds, dose response, artefact control for ARNT-TACC3 interaction inhibitor project, biochemical, luminescence, cherry-pick (AID 651705); format: functional;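 further: AlphaScreen bead proximity signal that flags compounds interfering with the detection technology; potency reflects signal decrease which marks the compound as an assay artifact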
Interleukin-8 [2] = target: T1, Interleukin-8 (Homo sapiens, UniProt P10145); assay: Dose Response confirmation of uHTS small molecule hits for cystic fibrosis induced NFkb Inhibitors in a TNFa-induced IL8 counterscreen.; format: functional; conditions: read-out: IC50_Mean
T1 sequence (P10145 whole entry): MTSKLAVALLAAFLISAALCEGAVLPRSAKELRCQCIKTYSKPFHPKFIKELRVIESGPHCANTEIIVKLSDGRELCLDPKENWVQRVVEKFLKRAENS

Interleukin-8 [3] = target: T1, Interleukin-8; assay: Dose Response confirmation of uHTS small molecule hits for cystic fibrosis induced NFkb Inhibitors in a PAF-induced IL8 counterscreen.; format: functional; conditions: read-out: IC50_Mean
[4] = C. albicans growth with fluconazole, confirmation, fluorescence, retest (AID 2467); format: functional, cell-based
INS1 = assay: beta cell apoptosis inhibitors, cytokine rescue, dose response, luminescence, retest (AID 449756); format: functional, cell-based; conditions: Rattus norvegicus;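 further: cell death triggered by IL-1 beta plus TNF-alpha plus IFN-gamma mixture; protective hits raise ATP signal compared with cytokine alone wells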
cells = format: functional
[5] = target: T2, Multidrug resistance protein CDR2 (Candida albicans (strain SC5314 / ATCC MYA-2876) (Yeast), UniProt P78595); assay: CaCDR2 efflux pump inhibitors in yeast, dose response, S. cerevisiae AD1-8u, singleplex, Cherry Pick2 set (AID 623994); format: functional; conditions: read-out: EC50_MICROM
T2 sequence (P78595 whole entry): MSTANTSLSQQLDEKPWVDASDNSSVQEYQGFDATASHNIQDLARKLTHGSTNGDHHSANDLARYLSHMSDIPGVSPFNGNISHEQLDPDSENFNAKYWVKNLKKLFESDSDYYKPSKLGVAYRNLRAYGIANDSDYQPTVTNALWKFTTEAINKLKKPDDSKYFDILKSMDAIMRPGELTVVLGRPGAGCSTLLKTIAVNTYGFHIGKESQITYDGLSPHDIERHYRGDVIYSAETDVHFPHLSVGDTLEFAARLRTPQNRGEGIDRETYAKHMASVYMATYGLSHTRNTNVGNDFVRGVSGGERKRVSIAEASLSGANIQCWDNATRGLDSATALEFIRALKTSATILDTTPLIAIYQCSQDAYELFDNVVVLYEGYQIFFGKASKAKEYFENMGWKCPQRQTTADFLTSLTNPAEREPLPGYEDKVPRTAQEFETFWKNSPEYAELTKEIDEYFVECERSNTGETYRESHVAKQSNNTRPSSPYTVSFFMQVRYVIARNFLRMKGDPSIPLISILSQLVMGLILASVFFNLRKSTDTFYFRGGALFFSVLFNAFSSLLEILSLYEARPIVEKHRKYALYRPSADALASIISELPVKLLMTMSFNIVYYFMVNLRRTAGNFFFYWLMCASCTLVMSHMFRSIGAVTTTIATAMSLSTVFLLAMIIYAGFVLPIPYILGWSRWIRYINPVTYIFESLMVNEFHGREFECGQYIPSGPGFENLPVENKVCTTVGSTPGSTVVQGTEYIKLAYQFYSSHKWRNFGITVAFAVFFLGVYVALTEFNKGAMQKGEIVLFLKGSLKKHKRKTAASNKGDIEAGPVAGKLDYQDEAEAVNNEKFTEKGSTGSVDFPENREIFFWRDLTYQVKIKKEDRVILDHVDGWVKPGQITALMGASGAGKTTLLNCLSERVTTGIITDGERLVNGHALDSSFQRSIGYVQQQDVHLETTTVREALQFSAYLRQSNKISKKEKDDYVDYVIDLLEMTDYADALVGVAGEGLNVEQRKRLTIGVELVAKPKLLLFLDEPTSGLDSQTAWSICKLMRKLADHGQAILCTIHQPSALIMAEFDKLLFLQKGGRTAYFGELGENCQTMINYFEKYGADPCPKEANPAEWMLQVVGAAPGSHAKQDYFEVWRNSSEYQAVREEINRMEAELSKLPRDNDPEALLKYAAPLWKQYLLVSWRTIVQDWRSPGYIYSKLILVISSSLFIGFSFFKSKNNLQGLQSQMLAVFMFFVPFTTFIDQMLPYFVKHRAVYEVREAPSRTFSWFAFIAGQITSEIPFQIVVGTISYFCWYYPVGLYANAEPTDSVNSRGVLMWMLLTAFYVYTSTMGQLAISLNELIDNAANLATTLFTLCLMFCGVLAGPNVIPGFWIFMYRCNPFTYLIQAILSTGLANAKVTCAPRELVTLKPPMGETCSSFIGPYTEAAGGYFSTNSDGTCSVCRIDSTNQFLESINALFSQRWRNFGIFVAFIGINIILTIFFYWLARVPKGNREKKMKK

[6] = target: T3, Ubiquitin-conjugating enzyme E2 N (Homo sapiens, UniProt P61088); format: functional;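 further: Dose-response confirmation in a TR-FRET assay detecting UBC13-driven polyubiquitin chain formation, inhibition measured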
T3 sequence (P61088 whole entry): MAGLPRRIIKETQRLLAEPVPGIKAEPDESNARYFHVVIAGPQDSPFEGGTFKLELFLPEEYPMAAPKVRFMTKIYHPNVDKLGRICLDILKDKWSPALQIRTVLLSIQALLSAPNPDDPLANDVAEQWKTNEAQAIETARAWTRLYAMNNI

[7] = NIH-3T3 fibroblast cytotoxicity, dose response, cytotoxicity control, cell-based, fluorescence, Alamar Blue, secondary assay (AID 2327); format: functional;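 further: NIH-3T3 mouse fibroblasts cultured with fluconazole at 8 µg/mL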
[8] = THP-1 cell cytotoxicity, dose response, cytotoxicity control for non-replicating M. tuberculosis project (AID 489025); format: functional
[9] = target: Adenosylmethionine-8-amino-7-oxononanoate aminotransferase (Mycobacterium tuberculosis, UniProt P9WQ81); assay: Mycobacterium tuberculosis BioA enzyme inhibitor Measured in Biochemical System Using Plate Reader - 2163-02_Inhibitor_Dose_CherryPick_Activity.; format: functional, Mycobacterium tuberculosis UT205
HEK293 [10] = assay: cells; format: functional, cell-based; conditions: Homo sapiens
HEK293 [11] = assay: NOD2 signaling inhibitors in MDP-stimulated cells, cell-based, uHTS, luminescence (AID 2001); format: functional; conditions: Homo sapiens
HEK293 [12] = assay: cells; format: functional, cell-based; conditions: Homo sapiens; remark: listed apart in the source
HEK293 [13] = assay: cells; format: functional, cell-based; conditions: Homo sapiens; remark: listed apart in the source
HEK293 [14] = assay: NOD1 signaling inhibitors, primary screen, cell-based, luminescence, uHTS (AID 1578); format: functional; conditions: Homo sapiens
[15] = target: Nucleotide-binding oligomerization domain-containing protein 2 (Homo sapiens, UniProt Q9HC29); assay: NOD2 signaling inhibitors, cell-based, luminescence, uHTS, HEK293 (AID 1566); format: functional
[16] = target: Mitochondrial peptide methionine sulfoxide reductase (Bos taurus, UniProt P54149); assay: Absorbance-based biochemical high throughput dose response assay for activators of Methionine sulfoxide reductase A (MsrA).; format: functional
[17] = target: T4, Sentrin-specific protease 1 (Homo sapiens, UniProt Q9P0U3); assay: potency of human SENP1 inhibitors, dose response, biochemical, kinetic FRET (AID 651697); format: functional; conditions: read-out: IC50_Mean
T4 sequence (Q9P0U3 whole entry, the tested form may be a part): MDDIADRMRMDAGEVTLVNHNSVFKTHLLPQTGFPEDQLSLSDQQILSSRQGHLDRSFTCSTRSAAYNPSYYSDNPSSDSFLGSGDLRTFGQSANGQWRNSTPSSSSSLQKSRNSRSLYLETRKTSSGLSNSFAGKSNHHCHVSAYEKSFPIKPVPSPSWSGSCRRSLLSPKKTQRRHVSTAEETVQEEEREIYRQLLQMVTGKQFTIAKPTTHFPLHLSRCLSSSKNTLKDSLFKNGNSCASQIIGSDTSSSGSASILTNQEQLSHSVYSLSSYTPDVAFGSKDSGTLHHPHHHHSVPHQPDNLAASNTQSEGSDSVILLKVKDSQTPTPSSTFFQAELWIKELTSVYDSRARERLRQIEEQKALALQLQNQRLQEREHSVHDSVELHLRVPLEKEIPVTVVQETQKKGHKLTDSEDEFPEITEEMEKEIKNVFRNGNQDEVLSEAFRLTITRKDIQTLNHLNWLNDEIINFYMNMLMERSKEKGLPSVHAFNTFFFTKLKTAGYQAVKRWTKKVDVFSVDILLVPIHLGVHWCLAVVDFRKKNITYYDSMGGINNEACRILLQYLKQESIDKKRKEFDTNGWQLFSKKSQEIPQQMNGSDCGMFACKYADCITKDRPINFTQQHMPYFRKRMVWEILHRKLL

[18] = target: T4, Sentrin-specific protease 1; assay: Dose response confirmation of small molecule inhibitors of the catalytic domain of the SUMO protease, SENP1 in a FRET assay.; format: functional; conditions: read-out: IC50_Mean
Protein Wnt-3a = Protein Wnt-3a (Mus musculus, UniProt P27467); assay: Wnt3a-driven reporter signaling inhibition, dose response, selectivity assay for Gli-SUFU antagonist project, Wnt-LIGHT cells, luminescence (AID 651570); format: functional; conditions: read-out: IC50_Mean;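 further: Wnt-LIGHT reporter cells stimulated with conditioned medium from Wnt3a-producing cells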
Melanocortin receptor 4 = Melanocortin receptor 4 (Homo sapiens, UniProt P32245); format: functional, cell-based;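 further: Cell-based assay with luminescence read-out, confirmatory dose-response testing for agonist activity of biased ligands at MC4R; human U2OS cells with tagged receptor and beta-arrestin; potency of agonists that increase receptor coupling to beta-arrestin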
[19] = target: Opioid receptors; mu & delta (Homo sapiens, UniProt P41143+P35372); assay: agonists of MOR-DOR heterodimerization, dose response, counter-screen for MC4R biased agonist project, cell-based, luminescence (AID 602264); format: functional
[20] = target: T5, ATP-dependent translocase ABCB1 (Homo sapiens, UniProt P08183); assay: ABCB1 efflux inhibitor potency, dose response, Jurkat-DNR cells, JC-1, flow cytometry, set 2 (AID 504569); format: functional; conditions: read-out: EC50_MICROM_;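 further: potency of pump inhibitors that raise cellular JC-1 green fluorescence up to the nicardipine level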
T5 sequence (P08183 whole entry): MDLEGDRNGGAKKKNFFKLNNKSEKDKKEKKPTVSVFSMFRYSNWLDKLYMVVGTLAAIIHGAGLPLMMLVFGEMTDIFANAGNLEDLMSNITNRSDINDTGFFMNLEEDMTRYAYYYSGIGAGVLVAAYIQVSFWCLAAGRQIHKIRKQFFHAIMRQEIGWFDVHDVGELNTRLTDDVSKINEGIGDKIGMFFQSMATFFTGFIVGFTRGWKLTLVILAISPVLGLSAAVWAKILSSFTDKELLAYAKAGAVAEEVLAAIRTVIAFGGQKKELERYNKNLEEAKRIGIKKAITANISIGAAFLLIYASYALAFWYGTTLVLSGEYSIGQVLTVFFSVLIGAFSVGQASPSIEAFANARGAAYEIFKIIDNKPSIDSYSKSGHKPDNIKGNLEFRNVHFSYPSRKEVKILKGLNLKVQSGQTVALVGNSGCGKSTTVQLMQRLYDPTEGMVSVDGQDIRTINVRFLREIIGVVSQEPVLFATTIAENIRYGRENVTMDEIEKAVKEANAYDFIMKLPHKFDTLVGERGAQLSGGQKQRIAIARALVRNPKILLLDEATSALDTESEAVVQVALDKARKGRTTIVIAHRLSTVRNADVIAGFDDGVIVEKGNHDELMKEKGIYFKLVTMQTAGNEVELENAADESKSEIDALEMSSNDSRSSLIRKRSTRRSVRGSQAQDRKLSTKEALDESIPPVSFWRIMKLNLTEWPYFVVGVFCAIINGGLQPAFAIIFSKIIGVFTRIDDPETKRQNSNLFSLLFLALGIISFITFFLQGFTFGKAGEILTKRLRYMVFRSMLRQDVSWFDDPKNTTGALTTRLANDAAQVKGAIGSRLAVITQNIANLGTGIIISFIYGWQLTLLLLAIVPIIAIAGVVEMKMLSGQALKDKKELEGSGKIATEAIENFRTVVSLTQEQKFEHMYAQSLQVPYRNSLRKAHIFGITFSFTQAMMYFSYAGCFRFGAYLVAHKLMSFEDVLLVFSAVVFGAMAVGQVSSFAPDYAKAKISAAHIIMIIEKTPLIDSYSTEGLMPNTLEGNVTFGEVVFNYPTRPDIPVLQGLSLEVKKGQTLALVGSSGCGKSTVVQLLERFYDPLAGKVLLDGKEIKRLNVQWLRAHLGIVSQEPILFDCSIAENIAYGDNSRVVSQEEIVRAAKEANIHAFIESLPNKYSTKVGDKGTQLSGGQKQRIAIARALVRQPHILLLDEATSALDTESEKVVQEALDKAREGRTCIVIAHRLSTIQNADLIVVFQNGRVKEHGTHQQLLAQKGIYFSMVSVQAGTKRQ

[21] = target: T5, ATP-dependent translocase ABCB1; assay: ABCG2 efflux pump inhibitor potency, dose response, Ig-MXP3 cells, JC-1, flow cytometry, set 2 (AID 504566); format: functional; conditions: read-out: EC50_MICROM_;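 further: flow cytometry median green fluorescence of retained JC-1 dye; potency of efflux pump inhibition measured as rising substrate retention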
Fatty acid synthase [22] = target: T6, Fatty acid synthase (Homo sapiens, UniProt P49327); assay: FAS thioesterase domain inhibitors, dose response, biochemical, kinetic fluorescence intensity (AID 624326); format: functional;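 further: rate of fluorescence rise from hydrolysis of a fluorogenic O-methyl fluorescein ester substrate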
T6 sequence (P49327 whole entry, the tested form may be a part): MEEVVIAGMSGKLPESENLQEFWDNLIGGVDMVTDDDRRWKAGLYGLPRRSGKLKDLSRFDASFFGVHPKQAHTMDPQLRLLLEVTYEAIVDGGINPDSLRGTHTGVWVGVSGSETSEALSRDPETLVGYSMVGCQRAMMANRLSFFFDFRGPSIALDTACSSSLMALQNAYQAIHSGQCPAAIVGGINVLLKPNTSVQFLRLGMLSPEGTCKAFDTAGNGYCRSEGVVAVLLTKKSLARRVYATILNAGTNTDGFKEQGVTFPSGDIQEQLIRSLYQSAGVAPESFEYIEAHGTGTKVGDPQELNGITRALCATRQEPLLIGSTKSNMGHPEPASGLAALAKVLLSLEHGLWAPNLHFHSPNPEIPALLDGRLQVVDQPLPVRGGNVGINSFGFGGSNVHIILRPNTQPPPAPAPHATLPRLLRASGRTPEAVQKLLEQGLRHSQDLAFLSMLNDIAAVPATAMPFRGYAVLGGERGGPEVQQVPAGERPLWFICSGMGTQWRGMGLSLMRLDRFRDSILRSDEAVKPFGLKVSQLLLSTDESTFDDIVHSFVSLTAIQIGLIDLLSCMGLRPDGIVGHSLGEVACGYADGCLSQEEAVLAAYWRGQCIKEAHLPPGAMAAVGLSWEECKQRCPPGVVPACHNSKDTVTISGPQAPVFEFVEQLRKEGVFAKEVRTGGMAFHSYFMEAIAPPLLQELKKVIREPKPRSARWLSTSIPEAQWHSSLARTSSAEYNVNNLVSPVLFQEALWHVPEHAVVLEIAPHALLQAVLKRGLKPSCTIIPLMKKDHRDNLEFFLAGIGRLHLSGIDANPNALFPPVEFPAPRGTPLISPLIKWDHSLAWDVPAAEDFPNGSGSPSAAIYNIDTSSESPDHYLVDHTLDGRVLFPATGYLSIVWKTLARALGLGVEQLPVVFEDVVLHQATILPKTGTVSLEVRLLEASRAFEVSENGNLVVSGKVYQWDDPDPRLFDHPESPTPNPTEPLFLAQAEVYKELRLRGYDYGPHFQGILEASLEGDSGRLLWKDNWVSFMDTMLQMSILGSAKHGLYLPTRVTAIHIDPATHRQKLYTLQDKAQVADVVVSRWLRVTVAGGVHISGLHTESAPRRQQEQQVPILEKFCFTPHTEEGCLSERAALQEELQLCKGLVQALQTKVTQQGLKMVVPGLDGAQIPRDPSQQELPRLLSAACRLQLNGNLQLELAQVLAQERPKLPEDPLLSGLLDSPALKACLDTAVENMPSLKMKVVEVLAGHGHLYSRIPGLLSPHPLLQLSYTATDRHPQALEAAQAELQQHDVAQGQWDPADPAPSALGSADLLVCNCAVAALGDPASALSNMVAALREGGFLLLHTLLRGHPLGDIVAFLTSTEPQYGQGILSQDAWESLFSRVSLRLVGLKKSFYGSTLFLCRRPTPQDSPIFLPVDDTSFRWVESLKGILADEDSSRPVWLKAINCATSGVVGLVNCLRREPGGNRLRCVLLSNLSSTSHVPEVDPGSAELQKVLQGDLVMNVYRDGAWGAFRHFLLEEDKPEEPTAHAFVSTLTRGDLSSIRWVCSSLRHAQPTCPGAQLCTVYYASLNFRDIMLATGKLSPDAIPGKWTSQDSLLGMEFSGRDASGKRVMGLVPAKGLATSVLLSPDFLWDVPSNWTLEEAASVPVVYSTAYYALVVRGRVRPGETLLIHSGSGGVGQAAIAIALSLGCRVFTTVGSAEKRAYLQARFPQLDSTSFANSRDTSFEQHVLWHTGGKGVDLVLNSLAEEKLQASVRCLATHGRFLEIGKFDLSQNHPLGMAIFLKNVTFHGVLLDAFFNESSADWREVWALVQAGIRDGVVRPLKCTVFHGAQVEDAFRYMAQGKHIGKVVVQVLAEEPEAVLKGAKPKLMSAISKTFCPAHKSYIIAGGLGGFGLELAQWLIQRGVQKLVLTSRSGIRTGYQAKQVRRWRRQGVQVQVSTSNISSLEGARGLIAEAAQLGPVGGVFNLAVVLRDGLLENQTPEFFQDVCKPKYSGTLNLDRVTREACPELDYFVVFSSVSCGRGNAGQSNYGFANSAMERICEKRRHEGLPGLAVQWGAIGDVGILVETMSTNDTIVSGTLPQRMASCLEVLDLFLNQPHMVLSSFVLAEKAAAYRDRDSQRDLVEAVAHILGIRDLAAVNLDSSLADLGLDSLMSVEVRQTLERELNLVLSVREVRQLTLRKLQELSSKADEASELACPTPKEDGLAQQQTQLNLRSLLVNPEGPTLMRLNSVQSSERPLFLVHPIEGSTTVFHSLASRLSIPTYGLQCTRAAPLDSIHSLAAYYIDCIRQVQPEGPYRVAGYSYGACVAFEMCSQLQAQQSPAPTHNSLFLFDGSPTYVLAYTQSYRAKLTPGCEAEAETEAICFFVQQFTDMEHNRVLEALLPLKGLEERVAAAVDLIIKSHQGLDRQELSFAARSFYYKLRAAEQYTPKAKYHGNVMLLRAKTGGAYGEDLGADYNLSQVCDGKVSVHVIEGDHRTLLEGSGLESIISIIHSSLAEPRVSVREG

[23] = target: Photoreceptor-specific nuclear receptor (Homo sapiens, UniProt Q9Y5X4); format: functional, cell-based;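 further: CHO-S cells with Gal4-NCOR and VP16-NR2E3 two-hybrid luciferase reporter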
[24] = Fluorescence-based cell-based high throughput dose response assay for inhibitors of the interaction of nucleotide-binding oligomerization domain containing 2 (NOD2) and the receptor-interacting serine-threonine kinase 2 (RIPK2).; format: functional; conditions: Homo sapiens
Beta Lactamase = Beta Lactamase (Pseudomonas aeruginosa, UniProt Q932Y6); assay: beta-lactamase reporter inhibitor potency, dose response, artefact control for NOD2-RIPK2 interaction inhibitor project, BLA reporter cells, FRET fluorescence (AID 651552); format: functional, cell-based
Beta Lactamase, sequence (Q932Y6 whole entry, the tested form may be a part): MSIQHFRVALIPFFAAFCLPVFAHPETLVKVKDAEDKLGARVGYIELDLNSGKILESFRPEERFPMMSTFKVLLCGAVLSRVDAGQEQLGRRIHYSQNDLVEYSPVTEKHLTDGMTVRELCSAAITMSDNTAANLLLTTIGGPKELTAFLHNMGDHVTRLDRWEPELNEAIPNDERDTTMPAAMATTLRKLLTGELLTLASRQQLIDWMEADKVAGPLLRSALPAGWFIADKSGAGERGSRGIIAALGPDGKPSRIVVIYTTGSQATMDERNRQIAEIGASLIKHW

Fatty acid synthase [25] = target: T6, Fatty acid synthase; assay: FAS thioesterase domain inhibitors, dose response, biochemical, endpoint fluorescence intensity, uHTS hits (AID 624327); format: functional;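 further: fluorescence from hydrolysis of an O-methyl fluorescein acyl ester substrate by the enzyme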
[26] = target: Tyrosine-protein phosphatase non-receptor type 11 (Homo sapiens, UniProt Q06124); assay: SHP2 phosphatase inhibition, dose response, selectivity assay for STEP inhibitor project, biochemical (AID 602367); format: functional; conditions: read-out: IC50_Mean
Large T antigen = Large T antigen (Simian virus 40, UniProt P03070); format: functional, Betapolyomavirus macacae;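 further: Confirmatory-stage PubChem screen for compounds that inhibit SV40 T antigen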
[27] = target: Dual specificity protein phosphatase 3 (Homo sapiens, UniProt P51452); assay: VHR phosphatase inhibition, dose response, selectivity assay for STEP inhibitor project, biochemical (AID 602374); format: functional; conditions: read-out: IC50_Mean
Dual specificity protein phosphatase 3, sequence (P51452 whole entry): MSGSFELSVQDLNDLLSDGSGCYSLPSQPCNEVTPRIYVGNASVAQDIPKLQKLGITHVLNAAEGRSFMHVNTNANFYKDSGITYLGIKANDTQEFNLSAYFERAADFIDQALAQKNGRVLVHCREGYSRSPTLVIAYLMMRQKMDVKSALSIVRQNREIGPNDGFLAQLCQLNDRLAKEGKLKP

[28] = target: T7, Tyrosine-protein phosphatase non-receptor type 22 (Homo sapiens, UniProt Q9Y2R2); assay: PTPN22 phosphatase inhibition, dose response, selectivity assay for STEP inhibitor project, biochemical (AID 624241); format: functional
T7 sequence (Q9Y2R2 whole entry): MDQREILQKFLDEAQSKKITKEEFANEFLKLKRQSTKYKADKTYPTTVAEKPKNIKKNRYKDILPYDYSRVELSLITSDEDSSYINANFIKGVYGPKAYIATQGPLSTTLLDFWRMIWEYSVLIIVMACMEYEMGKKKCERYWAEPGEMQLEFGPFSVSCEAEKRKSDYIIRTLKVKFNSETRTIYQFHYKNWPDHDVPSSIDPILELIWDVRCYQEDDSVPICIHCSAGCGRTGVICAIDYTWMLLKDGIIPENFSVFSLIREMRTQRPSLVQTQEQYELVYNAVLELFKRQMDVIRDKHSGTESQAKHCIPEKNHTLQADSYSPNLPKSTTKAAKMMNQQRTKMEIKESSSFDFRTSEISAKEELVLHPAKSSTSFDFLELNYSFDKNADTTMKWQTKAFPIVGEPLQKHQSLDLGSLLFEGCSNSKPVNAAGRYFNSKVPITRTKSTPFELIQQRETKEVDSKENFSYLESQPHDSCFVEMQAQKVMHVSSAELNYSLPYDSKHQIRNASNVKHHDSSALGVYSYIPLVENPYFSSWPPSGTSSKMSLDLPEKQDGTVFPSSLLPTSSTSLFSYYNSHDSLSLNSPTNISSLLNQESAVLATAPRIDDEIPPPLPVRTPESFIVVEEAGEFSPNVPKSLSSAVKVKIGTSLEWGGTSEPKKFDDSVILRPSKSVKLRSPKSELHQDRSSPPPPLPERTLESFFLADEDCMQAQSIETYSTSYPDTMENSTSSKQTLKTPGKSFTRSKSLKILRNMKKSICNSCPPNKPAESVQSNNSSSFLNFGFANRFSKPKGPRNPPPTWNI

[29] = target: Bifunctional protein GlmU (Mycobacterium tuberculosis, UniProt P9WMN3); assay: Inhibitors of Mycobacterial Glucosamine-1-phosphate acetyl transferase (GlmU). Secondary screen.; set-up: species or system Mycobacterium tuberculosis H37Rv

COc1ccccc1-c1nnc(NC(=O)c2cccc(N3C(=O)CCC3=O)c2)o1
AC50 [1]: 133 µM (active)

COC(=O)N1C(=O)[C@@](c2ccccc2)(C(C)C)N1C(=O)OC
IC50 (Interleukin-8 [2]): 2.15 µM (active)
IC50 (Interleukin-8 [3]): 1.82 µM (active)

NC1=NC[C@H](Cc2ccccc2)N1CCCCC1CCCCC1
EC50 [4]: 2.37 µM (active)
AC50 (INS1): 5.54 µM (active)
IC50 (cells): 23.6 µM (active)
EC50 [5]: 34.7 µM (active)
IC50 [6]: > 20 µM (inactive)
EC50 [7]: > 160 µM (inactive)
CC50 [8]: 7.59 µM (active)

CN1CCCC1CCOC(C)(c1ccccc1)c1ccc(Cl)cc1 (stereo not given)
AC50 [9]: 10.6 µM (active)

Cc1ccc(NS(=O)(=O)c2ccc3c(c2)C(=O)c2ccccc2C3=O)c(C)c1
IC50 (HEK293 [10]): > 20 µM (inactive)
IC50 (HEK293 [11]): 6.68 µM (active)
IC50 (HEK293 [12]): > 20 µM (inactive)
IC50 (HEK293 [13]): 7.68 µM (active)
EC50 (HEK293 [14]): 6.34 µM (active)
EC50 [15]: > 20 µM (inactive)
EC50 [16]: > 104 µM (inactive)

COc1ccc2c(c1)c1nc3ccccc3nc1n2Cc1ccc(OC(C)C)c(OC)c1
IC50 [17]: 24.4 µM (inactive)
IC50 [18]: 34.7 µM (inactive)

CC(C)(C)[C@H]1COC(=O)[C@H](NC(=O)OCC2c3ccccc3-c3ccccc32)C/C=C\C[C@@H](CC(=O)N[C@@H](CO)Cc2ccccc2)C(=O)N1
IC50 (Protein Wnt-3a): 18.6 µM (active)

NC(Cc1ccc(C(F)(F)F)cc1)c1csc(Nc2ccc(C(=O)NCc3ccco3)cn2)n1 (stereo not given)
EC50 (Melanocortin receptor 4): > 9.91 µM (active)
EC50 [19]: > 7.173 µM

CC(=O)N1CCN(c2c(C)c(C)nc3cc(-c4cccc(F)c4)nn23)CC1
EC50 [20]: 5.95 µM (inactive)
EC50 [21]: 4.22 µM (active)

CCOC(=O)[C@]12Cc3cc(C)ccc3[C@H]1N(C1CCCCC1)C(=O)c1cc(OC)ccc12
IC50 (Fatty acid synthase [22]): 6.32 µM (active)
IC50 [23]: 4.3 µM (active)
IC50 [24]: 1.62 µM (active)
IC50 (Beta Lactamase): 19.3 µM (inactive)
IC50 (Fatty acid synthase [25]): 5.45 µM (active)

O=C(O)C(S)C(S)C(=O)O (stereo not given)
IC50 [26]: 0.518 µM (active)
IC50 (Large T antigen): 75.9 µM (active)
IC50 [27]: 3.22 µM (active)
IC50 [28]: 4.48 µM (active)
IC50 [29]: 181 µM (active)
